US8993574B2, “Pyrrole antifungal agents” (F2G Ltd, priority 2008, dated 2015)
Converted amounts (≈) assume the structure as drawn.

Experiments:
Format in all cases: cell-based
Aspergillus terreus AT49 [1] = test: MIC, YAG medium; conditions: 24 h at 35° C, MIC banded into grades; for MIC: Aspergillus terreus, read-out: MIC grade, A. terreus 49
Summary of the method: (§1)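 Spores harvested from 5-day Sabouraud agar cultures were inoculated at 1−2×10^4 cfu/mL into YAG medium (1% glucose, 1% ammonium chloride, 0.5% yeast extract) over doubling drug dilutions spanning 50-0.05 mg/L, or 0.5-0.0005 mg/L on repeat. After 24 h at 35° C, OD485 was read. MIC is the lowest concentration inhibiting growth >70% versus drug-free control, in mg/L.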

[2] = tested on: Aspergillus fumigatus AF293; test: MIC, YAG medium; conditions: 24 h at 35° C, MIC banded into grades; for MIC: Aspergillus fumigatus, read-out: MIC grade, A. fumigatus
Summary of the method: as §1

Aspergillus terreus AT4 [3] = test: MIC, YAG medium; conditions: 24 h at 35° C, MIC banded into grades; for MIC: Aspergillus terreus, read-out: MIC grade, A. terreus
Summary of the method: as §1

Aspergillus niger [4] = test: MIC, YAG medium; conditions: 24 h at 35° C, MIC banded into grades; for MIC: Aspergillus niger, read-out: MIC grade, A. niger
Summary of the method: as §1

Aspergillus flavus [5] = test: MIC, YAG medium; conditions: 24 h at 35° C, MIC banded into grades; for MIC: Aspergillus flavus, 24 h, read-out: MIC grade, A. flavus
Summary of the method: as §1

[6] = tested on: Aspergillus fumigatus AF210; test: MIC, YAG medium; conditions: 24 h at 35° C, MIC banded into grades; for MIC: Aspergillus fumigatus, read-out: MIC grade, A. fumigatus 210
Summary of the method: as §1

Aspergillus terreus AT49 [7] = test: MIC, RPMI medium; conditions: for MIC: Aspergillus terreus, AT49, MIC banded into grades, read-out: MIC grade, A. terreus 49
Summary of the method: (§2)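 Broth microdilution in RPMI medium with 2% glucose and 0.135 M MOPS (pH 7.0); compounds as doubling dilutions over 50-0.05 mg/L, inoculum 1−2×10^4 cfu/mL. Plates incubated 24-48 h at 35° C; OD 485 nm read, MIC being lowest concentration giving >80% growth inhibition versus drug-free control.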

[8] = tested on: Aspergillus fumigatus AF293; test: MIC, RPMI medium; conditions: for MIC: Aspergillus fumigatus, AF293, MIC banded into grades, read-out: MIC grade, A. fumigatus
Summary of the method: as §2

Aspergillus terreus AT4 [9] = test: MIC, RPMI medium; conditions: for MIC: Aspergillus terreus, AT4, MIC banded into grades, read-out: MIC grade, A. terreus
Summary of the method: as §2

Aspergillus niger [10] = test: MIC, RPMI medium; conditions: MIC banded into grades; for MIC: Aspergillus niger, read-out: MIC grade, A. niger
Summary of the method: as §2

Aspergillus flavus [11] = test: MIC, RPMI medium; conditions: MIC banded into grades; for MIC: Aspergillus flavus, read-out: MIC grade, A. flavus
Summary of the method: as §2

[12] = tested on: Aspergillus fumigatus AF210; test: MIC, RPMI medium; conditions: for MIC: Aspergillus fumigatus, AF210, MIC banded into grades, read-out: MIC grade, A. fumigatus 210
Summary of the method: as §2

Row | SMILES | MIC (Aspergillus terreus AT49 [1]) | MIC [2] | MIC (Aspergillus terreus AT4 [3]) | MIC (Aspergillus niger [4]) | MIC (Aspergillus flavus [5]) | MIC [6] | MIC (Aspergillus terreus AT49 [7]) | MIC [8] | MIC (Aspergillus terreus AT4 [9]) | MIC (Aspergillus niger [10]) | MIC (Aspergillus flavus [11]) | MIC [12] | further results
1 | CCn1ccc2c(F)c(NC(=O)C(=O)c3c(-c4ccccc4)cc(C)n3C)ccc21 [Example 128, 2-(1,5-Dimethyl-3-phenyl-1H-pyrrol-2-yl)-N-(1-ethyl-4-fluoro-1H-indol-5-yl)-2-oxo-acetamide] | < 1 µg/mL | < 1 µg/mL | < 1 µg/mL | < 1 µg/mL | < 1 µg/mL | < 1 µg/mL | < 1 µg/mL | < 1 µg/mL | < 1 µg/mL | < 1 µg/mL | < 1 µg/mL | < 1 µg/mL | 
2 | Cc1cc(-c2ccccc2)c(C(=O)C(=O)Nc2ccc(N3CCN(C(C)Cc4ccco4)CC3)cc2)n1C (stereo not drawn) [Example 152, 2-(1,5-Dimethyl-3-phenyl-1H-pyrrol-2-yl)-N-{4-[4-(2-furan-2-yl-1-methyl-ethyl)-piperazin-1-yl]-phenyl}-2-oxo-acetamide] | < 1 µg/mL | < 1 µg/mL | < 1 µg/mL | < 1 µg/mL | < 1 µg/mL | < 1 µg/mL | < 1 µg/mL | < 1 µg/mL | < 1 µg/mL | < 1 µg/mL | < 1 µg/mL | < 1 µg/mL | 
3 | CCCc1cc(-c2ccccc2)c(C(=O)C(=O)Nc2ccc(N3CCN(c4cc(C)cc(C)n4)CC3)cc2)n1C [Example 124, N-{4-[4-(4,6-Dimethyl-pyridin-2-yl)-piperizin-1-yl]-phenyl}-2-[1-methyl-3-phenyl-5-propyl-1H-pyrrol-2-yl)-2-oxo-acetamide] |  |  |  |  |  |  |  |  |  |  |  |  | MIC grade, A. terreus 49 (Aspergillus terreus AT49 [1]): 3 (A grade of 3 represents an MIC of less than 1 mg/L); MIC grade, A. fumigatus [2]: 3 (A grade of 3 represents an MIC of less than 1 mg/L); MIC grade, A. terreus (Aspergillus terreus AT4 [3]): 3 (A grade of 3 represents an MIC of less than 1 mg/L); MIC grade, A. niger (Aspergillus niger [4]): 3 (A grade of 3 represents an MIC of less than 1 mg/L); MIC grade, A. flavus (Aspergillus flavus [5]): 3 (A grade of 3 represents an MIC of less than 1 mg/L); MIC grade, A. fumigatus 210 [6]: 3 (A grade of 3 represents an MIC of less than 1 mg/L); MIC grade, A. terreus 49 (Aspergillus terreus AT49 [7]; MIC banded into grades): 2 (A grade of 2 represents an MIC of from 1 to 10 mg/L); MIC grade, A. fumigatus ([8]; MIC banded into grades): 2 (A grade of 2 represents an MIC of from 1 to 10 mg/L); MIC grade, A. terreus (Aspergillus terreus AT4 [9]; MIC banded into grades): 2 (A grade of 2 represents an MIC of from 1 to 10 mg/L); MIC grade, A. niger (Aspergillus niger [10]): 1 (a grade of 1 represents an MIC of greater than 10 mg/L); MIC grade, A. flavus (Aspergillus flavus [11]): 2 (A grade of 2 represents an MIC of from 1 to 10 mg/L); MIC grade, A. fumigatus 210 ([12]; MIC banded into grades): 2 (A grade of 2 represents an MIC of from 1 to 10 mg/L)
4 | CCc1cc(-c2ccccc2)c(C(=O)C(=O)Nc2ccc(N3CCN(c4cc(C)cc(C)n4)CC3)cc2)n1CCOC [Example 54, N-{4-[4-(4,6-Dimethyl-pyridin-2-yl)-piperazin-1-yl]-phenyl}-2-[5-ethyl-1-(2-methoxy-ethyl)-3-phenyl-1H-pyrrol-2-yl]-2-oxo-acetamide] | < 1 µg/mL | < 1 µg/mL | 1 to 10 µg/mL (≈ 1.77 to 17.7 µM) | 1 to 10 µg/mL (≈ 1.77 to 17.7 µM) | 1 to 10 µg/mL (≈ 1.77 to 17.7 µM) | < 1 µg/mL | > 10 µg/mL | < 1 µg/mL | > 10 µg/mL | 1 to 10 µg/mL (≈ 1.77 to 17.7 µM) | > 10 µg/mL | 1 to 10 µg/mL (≈ 1.77 to 17.7 µM) | 
5 | Cc1cc(-c2ccccc2)c(C(=O)C(=O)Nc2ccc(N3CCN(Cc4ccccc4)CC3)cc2)n1C [Example 144, N-[4-(4-Benzyl-piperazin-1-yl)-phenyl]-2-(1,5-dimethyl-3-phenyl-1H-pyrrol-2-yl)-2-oxo-acetamide] | < 1 µg/mL | < 1 µg/mL | < 1 µg/mL | < 1 µg/mL | < 1 µg/mL | < 1 µg/mL | < 1 µg/mL | < 1 µg/mL | < 1 µg/mL | < 1 µg/mL | < 1 µg/mL | < 1 µg/mL | 
6 | Cc1cc(C)nc(N2CCN(c3ccc(NC(=O)C(=O)c4c(C5CCOCC5)cc(C)n4C)cc3)CC2)c1 [Example 15, N-{4-[4-(4,6-Dimethyl-pyridin-2-yl)-piperazin-1-yl]-phenyl}-2-[1,5-dimethyl-3-(tetrahydro-pyran-4-yl)-1H-pyrrol-2-yl]-2-oxo-acetamide] | < 1 µg/mL | < 1 µg/mL | < 1 µg/mL | < 1 µg/mL | < 1 µg/mL | < 1 µg/mL | < 1 µg/mL | < 1 µg/mL | < 1 µg/mL | < 1 µg/mL | < 1 µg/mL | < 1 µg/mL | 

Further lines, with some results ahead:

Row | MIC (Aspergillus terreus AT49 [1]) | MIC [2] | MIC (Aspergillus terreus AT4 [3]) | MIC (Aspergillus niger [4]) | MIC (Aspergillus flavus [5]) | MIC [6] | MIC (Aspergillus terreus AT49 [7]) | MIC [8] | MIC (Aspergillus terreus AT4 [9]) | MIC (Aspergillus niger [10]) | MIC (Aspergillus flavus [11]) | MIC [12] | SMILES | further results
7 | < 1 µg/mL | > 10 µg/mL | < 1 µg/mL | > 10 µg/mL | 1 to 10 µg/mL (≈ 2.03 to 20.3 µM) | 1 to 10 µg/mL (≈ 2.03 to 20.3 µM) | 1 to 10 µg/mL (≈ 2.03 to 20.3 µM) | > 10 µg/mL | 1 to 10 µg/mL (≈ 2.03 to 20.3 µM) | > 10 µg/mL | > 10 µg/mL | > 10 µg/mL | Cc1cc(C)nc(N2CCN(c3ccc(NC(=O)C(=O)c4ccc(C)n4-c4ccccc4)cc3)CC2)c1 [Example 3, N-{4-[4-(4,6-Dimethyl-pyridin-2-yl)-piperazin-1-yl]-phenyl}-2-(5-methyl-1-phenyl-1H-pyrrol-2-yl)-2-oxo-acetamide] | 
8 | < 1 µg/mL | < 1 µg/mL | < 1 µg/mL | < 1 µg/mL | < 1 µg/mL | < 1 µg/mL | < 1 µg/mL | < 1 µg/mL | < 1 µg/mL | < 1 µg/mL | < 1 µg/mL | < 1 µg/mL | COCc1cc(-c2ccccc2)c(C(=O)C(=O)Nc2ccc(N3CCN(c4cc(C)cc(C)n4)CC3)cc2)n1C [Example 130, N-{4-[4-(4,6-Dimethyl-pyridin-2-yl)-piperazin-1-yl]-phenyl}-2-(5-methoxymethyl-1-methyl-3-phenyl-1H-pyrrol-2-yl)-2-oxo-acetamide] | 
9 | < 1 µg/mL | < 1 µg/mL | < 1 µg/mL | < 1 µg/mL | < 1 µg/mL | < 1 µg/mL | 1 to 10 µg/mL (≈ 1.81 to 18.1 µM) | < 1 µg/mL | 1 to 10 µg/mL (≈ 1.81 to 18.1 µM) | 1 to 10 µg/mL (≈ 1.81 to 18.1 µM) | < 1 µg/mL | 1 to 10 µg/mL (≈ 1.81 to 18.1 µM) | COCCc1cc(-c2ccccc2)c(C(=O)C(=O)Nc2ccc(N3CCN(c4cc(C)cc(C)n4)CC3)cc2)n1C [Example 129, N-{4-[4-(4,6-Dimethyl-pyridin-2-yl)-piperazin-1-yl]-phenyl}-2-[5-(2-methoxy-ethyl)-1-methyl-3-phenyl-1H-pyrrol-2-yl]-2-oxo-acetamide] | 
10 | < 1 µg/mL | < 1 µg/mL | < 1 µg/mL | < 1 µg/mL | 1 to 10 µg/mL (≈ 1.77 to 17.7 µM) | < 1 µg/mL | 1 to 10 µg/mL (≈ 1.77 to 17.7 µM) | < 1 µg/mL | 1 to 10 µg/mL (≈ 1.77 to 17.7 µM) | < 1 µg/mL | 1 to 10 µg/mL (≈ 1.77 to 17.7 µM) | < 1 µg/mL | COCCCn1c(C)cc(-c2ccccc2)c1C(=O)C(=O)Nc1ccc(N2CCN(c3cc(C)cc(C)n3)CC2)cc1 [Example 28, N-{4-[4-(4,6-Dimethyl-pyridin-2-yl)-piperazin-1-yl]-phenyl}-2-[1-(3-methoxy-propyl)-5-methyl-3-phenyl-1H-pyrrol-2-yl]-2-oxo-acetamide] | 
11 | < 1 µg/mL | 1 to 10 µg/mL (≈ 2.03 to 20.3 µM) | > 10 µg/mL | > 10 µg/mL | < 1 µg/mL | < 1 µg/mL | 1 to 10 µg/mL (≈ 2.03 to 20.3 µM) | > 10 µg/mL | 1 to 10 µg/mL (≈ 2.03 to 20.3 µM) | > 10 µg/mL | > 10 µg/mL | > 10 µg/mL | Cc1cc(C)nc(N2CCN(c3ccc(NC(=O)C(=O)c4cc(-c5ccccc5)cn4C)cc3)CC2)c1 [Example 46, N-{4-[4-(4,6-Dimethyl-pyridin-2-yl)-piperazin-1-yl]-phenyl}-2-(1-methyl-4-phenyl-1H-pyrrol-2-yl)-2-oxo-acetamide] | 
